# Measured values published in publication PMC2409587 (British Journal of Cancer, 2004).
# Where two headings read alike, the source gives them in different places.
# What was measured:
# [1] = Plasma and tissue levels in mice after a single intragastric dose; type: in vivo, mouse; conditions: for peak concentration / AUC: mice, 240 mg/kg i.g.; for AUC: 0-120 min
# Experimental: Animal experiments were conducted as stipulated by Project Licence 40/2496 granted by the UK Home Office. Experiments were vetted and approved by the Leicester University Animal Welfare Committee and complied with the UKCCCR guidelines for the welfare of animals in experimental neoplasia. […] The vehicle was glycerol formal, and the dose volume approximately 10 ml kg^−1. In the case of DMU 212, the vehicle also contained 10% DMSO. Mice were killed by terminal gaseous anaesthesia at 10, 30, 60 or 120 min postdosing. Blood was collected by cardiac puncture, and plasma was obtained by centrifugation. The liver, kidney, lung, heart, brain and gut were excised, and scrapings were obtained from small intestine and colon. Tissues were snap-frozen (liquid nitrogen) and stored at −80°C until analysis.
# Tissues were homogenised (1 : 1 volume to tissue mass ratio) in 50 mM Hepes buffer (Sigma, Poole, UK) using a hand-held glass homogeniser. An aliquot (250 μl) of homogenate, to which an internal standard had been added was vortexed, followed by the addition of acetonitrile (1 ml). After vigorous shaking, mixtures were kept on ice (5–10 min) and centrifuged (2800 g, 10 min, 4°C). The supernatants were dried under a stream of nitrogen and reconstituted in mobile phase (100 μl).
# (§1) HPLC analysis was performed using a Varian Prostar HPLC system (Varian, UK) with a Pro-Star 230 solvent delivery system, a Pro-Star 310 UV–Vis detector, a Pro-Star 363 Fluorescence detector, a 410 Varian autosampler and an Ultracarb C18 column (4.6 mm × 250 mm, 5 μm, Phenomenex, UK). The mobile phase consisted of the three components: aqueous ammonium acetate (pH 6.5, 50 mM), propan-2-ol and acetonitrile. […] The flow rate for both methods was 1 ml min^−1.
# (§2) The injection volume of samples reconstituted in the mobile phase was 50 μl.
# The curves were characterised by regression coefficients of R^2=0.99 or above. […] Therefore, metabolites were not quantitated.
# The area under the plasma or tissue concentration vs time curve (AUC) values were calculated using the trapezoidal rule (WinNonlin v.1.1, Scientific Consultants, USA).
# [2] = type: in vivo, mouse; conditions: agents at 0.2% in the diet for 2 weeks; result not shown
# Experimental: ). Both agents were rapidly cleared from blood and tissues within an hour of administration (Figure 3). […] DMU 212 levels reached a peak after 10 min, except in the case of the colon, in which the peak occurred after 30 min. The peak levels for DMU 212 were 5 μM in the plasma and 8, 11, 11, 5, 10, 7600 and 330 nmols g^−1 tissue in the liver, kidney, lung, brain, heart, small intestinal and colonic mucosae, respectively. We performed a preliminary experiment in order to explore whether the difference in gastrointestinal levels would also be observed when the agents are administered with the diet, the route often used in preclinical cancer chemoprevention studies. Agents were admixed with the diet at 0.2% and fed for 2 weeks.
# HT-29 colon cancer cells = test: Effect of agents on growth of HT-29 cells; type: cell-based; conditions: Homo sapiens, read-out: IC50 (cell growth)
# Experimental: (§3) Cells were seeded (10^4 per well) in 24-well plates and cultured in DMEM containing Glutamax I (Life Technologies, Paisley, UK) and glucose (4.5 g l^−1) and 10% foetal calf serum (Gibco, Paisley, UK). […] Cells were counted 72, 96, 120, 144 and 168 h postaddition of agents using a Z2 Coulter Particle Count and Size Analyzer (Beckman Coulter, High Wycombe, UK). Control cultures contained the vehicle only. […] The IC50 values inserted in Figure 5 were calculated from the linear portion of the cell number-vs agent concentration curves at the 168 h time point.
# HCA-7 colon cancer cells = test: Effect of agents on growth of HCA-7 cells; type: cell-based; conditions: Homo sapiens, 168 h time point, cell counts
# Experimental: as §3
# [3] = system: HCA-7 and HT-29 colon cancer cells; test: Effect of agents on growth of colon cancer cells, range stated over both lines; type: cell-based; conditions: Homo sapiens, 168 h, read-out: IC50 values (cell growth), range over both agents and both cell lines
# Experimental: as §3
# [4] = Incubation with mouse liver microsomes; type: in vitro ADME; conditions: mouse liver microsomes 0.5 mg protein ml^−1, NADPH 1 mM, substrate 1 mM, 20 min, 37°C
# Experimental: Microsomes were prepared by differential centrifugation of mouse liver homogenate first at 9 × 10^3 g (20 min, 4°C), then at 10^5 g (1 h) in a Beckman L-8-60 ultracentrifuge (Beckman Coulter UK Ltd, High Wycombe, Buckinghamshire, UK). The microsomal pellet was suspended in Tris buffer (50 mM, pH 7.4), recentrifuged at 10^5 g (1 h) and resuspended in Tris buffer. Liver microsomes from two to four mice were pooled. […] The addition of one volume of ice-cold methanol terminated the reaction. The mixture was vortexed (30 s), centrifuged (3 min, 13 400 g) and the supernatant was collected and analysed by HPLC.
# as §1, §2
# [5] = Metabolite characterisation in plasma and tissues of dosed mice; type: in vivo, mouse; conditions: 240 mg/kg i.g., HPLC cochromatography and mass spectrometry
# Experimental: The vehicle was glycerol formal, and the dose volume approximately 10 ml kg^−1. […] Mice were killed by terminal gaseous anaesthesia at 10, 30, 60 or 120 min postdosing. Blood was collected by cardiac puncture, and plasma was obtained by centrifugation. The liver, kidney, lung, heart, brain and gut were excised, and scrapings were obtained from small intestine and colon. Tissues were snap-frozen (liquid nitrogen) and stored at −80°C until analysis.
# Tissues were homogenised (1 : 1 volume to tissue mass ratio) in 50 mM Hepes buffer (Sigma, Poole, UK) using a hand-held glass homogeniser. […] After vigorous shaking, mixtures were kept on ice (5–10 min) and centrifuged (2800 g, 10 min, 4°C). The supernatants were dried under a stream of nitrogen and reconstituted in mobile phase (100 μl).
# HPLC analysis was performed using a Varian Prostar HPLC system (Varian, UK) with a Pro-Star 230 solvent delivery system, a Pro-Star 310 UV–Vis detector, a Pro-Star 363 Fluorescence detector, a 410 Varian autosampler and an Ultracarb C18 column (4.6 mm × 250 mm, 5 μm, Phenomenex, UK). […]
# Mass spectrometry was performed using a Quattro Bio-Q tandem quadrupole mass spectrometer upgraded to Quattro MK II specifications (Micromass, Manchester, UK) with a pneumatically assisted electrospray interface. Samples were analysed in positive ion mode.
# [6] = system: transformed human lung-derived cells; parameters: method as in Lu et al, 2001; conditions: ref Lu et al, 2001; cited from earlier work
# [7] = rats, ref Verschoyle et al, unpublished, cited from earlier work
# [8] = plasma and tissues (for DMU 212 except colon), 10 min was the first time point
smiles,measurement,setting,value
"COc1ccc(C=Cc2cc(OC)c(OC)c(OC)c2)cc1 [DMU 212, 3,4,5,4′-tetramethoxystilbene]",peak concentration,[1]; brain,5 nmols g^−1 tissue
same,AUC,[1]; brain,193 nmoles ml^−1 or g^−1 min
same,time at which levels peaked,[1]; colon,30 min
same,peak concentration,[1]; colonic mucosa,330 nmols g^−1 tissue
same,AUC,[1]; colonic mucosa,19 256 nmoles ml^−1 or g^−1 min
same,peak concentration,[1]; heart,10 nmols g^−1 tissue
same,AUC,[1]; heart,750 nmoles ml^−1 or g^−1 min
same,AUC,[1]; intestinal mucosa,369 315 nmoles ml^−1 or g^−1 min
same,peak concentration,[1]; kidney,11 nmols g^−1 tissue
same,AUC,[1]; kidney,566 nmoles ml^−1 or g^−1 min
same,peak concentration,[1]; liver,8 nmols g^−1 tissue
same,AUC,[1]; liver,432 nmoles ml^−1 or g^−1 min
same,peak concentration,[1]; lung,11 nmols g^−1 tissue
same,AUC,[1]; lung,778 nmoles ml^−1 or g^−1 min
same,time at which levels peaked,[1]; [8],10 min
same,peak concentration,[1]; plasma,5 µM
same,AUC,[1]; plasma,246 nmoles ml^−1 or g^−1 min
same,factor by which peak level exceeded the concentration arresting transformed lung cell growth (10 μM),[1]; small intestinal mucosa,760
same,peak concentration,[1]; small intestinal mucosa,7600 nmols g^−1 tissue
same,colonic levels of DMU 212 relative to those of resveratrol,[2],two-fold
same,IC50,"HT-29 colon cancer cells; HT-29, 168 h",11.3 ± 1.1 µM
same,IC50,HCA-7 colon cancer cells,6 ± 0.2 µM
same,IC50,[3],6 to 26 µM
same,microsomal biotransformation (HPLC peaks besides parent),[4],afforded peaks in addition to that of parent DMU 212
same,metabolism in mice in vivo,[5],underwent metabolic hydroxylation or single and double O-demethylation
same,concentration required to cause significant arrest of transformed lung cell growth in vitro,[6],10 µM
same,toxicity,[7]; single doses of up to 40 mg kg^−1 i.v.,devoid of any toxicity
same,toxicity,[7]; single doses of up to 400 mg kg^−1 p.o.,devoid of any toxicity
"Oc1ccc(/C=C/c2cc(O)cc(O)c2)cc1 [resveratrol, trans-3,5,4′-trihydroxystilbene, reference compound]",peak concentration,[1]; brain,1.2 nmols g^−1 tissue
same,AUC,[1]; brain,103 nmoles ml^−1 or g^−1 min
same,peak concentration,[1]; colonic mucosa,30 nmols g^−1 tissue
same,AUC,[1]; colonic mucosa,2869 nmoles ml^−1 or g^−1 min
same,peak concentration,[1]; heart,75 nmols g^−1 tissue
same,AUC,[1]; heart,2072 nmoles ml^−1 or g^−1 min
same,AUC,[1]; intestinal mucosa,36 690 nmoles ml^−1 or g^−1 min
same,peak concentration,[1]; kidney,16 nmols g^−1 tissue
same,AUC,[1]; kidney,785 nmoles ml^−1 or g^−1 min
same,peak concentration,[1]; liver,51 nmols g^−1 tissue
same,AUC,[1]; liver,2150 nmoles ml^−1 or g^−1 min
same,peak concentration,[1]; lung,50 nmols g^−1 tissue
same,AUC,[1]; lung,1123 nmoles ml^−1 or g^−1 min
same,time at which levels peaked,[1]; [8],10 min
same,peak concentration,[1]; plasma,32 µM
same,AUC,[1]; plasma,863 nmoles ml^−1 or g^−1 min
same,peak concentration,[1]; small intestinal mucosa,960 nmols g^−1 tissue
same,IC50,"HT-29 colon cancer cells; HT-29 cells, 168 h time point, cell counts",19.9 ± 0.3 µM
same,IC50,[3]; HCA-7 and HT-29 cells,6 to 26 µM
same,microsomal biotransformation (HPLC peaks besides parent),[4],did not yield any peak in addition to that of the parent substrate
